Numbering of substitutions follows the chain as printed.
Columns and labels:
bcCodY = target: T1, bcCodY (Bacillus cereus, UniProt Q819X8); assay: size-exclusion chromatography, change of oligomeric state; assay type: binding; details: 1 mM GTP, pH 8.0, no Ile
T1 sequence (Q819X8 1-259): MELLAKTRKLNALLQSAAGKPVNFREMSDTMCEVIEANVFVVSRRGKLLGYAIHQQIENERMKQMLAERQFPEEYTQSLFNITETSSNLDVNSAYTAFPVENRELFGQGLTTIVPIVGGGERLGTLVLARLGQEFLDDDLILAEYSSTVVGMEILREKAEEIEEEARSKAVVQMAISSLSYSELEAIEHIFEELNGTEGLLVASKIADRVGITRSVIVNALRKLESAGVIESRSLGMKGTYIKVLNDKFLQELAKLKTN

saCodY [1] = target: saCodY (Staphylococcus aureus, UniProt A7X1N2, E153A); assay: biochemical
saCodY [2] = target: saCodY (Staphylococcus aureus, UniProt A7X1N2, H70A/K158A/K47A/R45A/S43A); assay: biochemical
saCodY [3] = target: T2, saCodY (Staphylococcus aureus, UniProt A7X1N2); assay: surface plasmon resonance; assay type: binding
T2 sequence (A7X1N2 1-257): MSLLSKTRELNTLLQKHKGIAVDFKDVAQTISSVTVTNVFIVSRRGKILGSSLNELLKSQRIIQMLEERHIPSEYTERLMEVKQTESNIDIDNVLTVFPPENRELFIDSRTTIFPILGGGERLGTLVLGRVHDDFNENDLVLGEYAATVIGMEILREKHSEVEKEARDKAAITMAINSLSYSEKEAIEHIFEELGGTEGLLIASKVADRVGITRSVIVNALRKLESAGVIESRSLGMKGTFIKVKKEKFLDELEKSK

saCodY 3P5A = target: T3, saCodY 3P5A (Staphylococcus aureus, UniProt A7X1N2 1-257, S43A;R45A;K47A;H70A;K158A); assay: EMSA
T3 sequence: T2 sequence (A7X1N2 1-257) with S43A, R45A, K47A, H70A, K158A

saCodY E153A = target: T4, saCodY E153A (Staphylococcus aureus, UniProt A7X1N2 1-257, E153A); assay: EMSA
T4 sequence: T2 sequence (A7X1N2 1-257) with E153A

SEC = target: the molecule itself; assay: SEC
crystal structure = target: the molecule itself; assay: crystal structure

Nc1nc2c(ncn2[C@@H]2O[C@H](COP(=O)(O)OP(=O)(O)OP(=O)(O)O)[C@@H](O)[C@H]2O)c(=O)[nH]1 [GTP]
size-exclusion chromatography, change of oligomeric state (bcCodY): after incubation of saCodY and bcCodY with GTP, the proteins eluted at much smaller sizes | Kd (saCodY [1]): 28 mM | Kd (saCodY [2]): 35 mM | Kd (saCodY [3]): 2.26 mM

Nc1nc2c(ncn2[C@@H]2O[C@H](COP(=O)(O)OP(=O)(O)O)[C@@H](O)[C@H]2O)c(=O)[nH]1 [GDP]
Kd (saCodY [3]): 17 mM

Nc1nc2c(ncn2[C@@H]2O[C@H](COP(=O)(O)O)[C@@H](O)[C@H]2O)c(=O)[nH]1 [GMP]
Kd (saCodY [3]): 20 mM

Nc1ncnc2c1ncn2[C@@H]1O[C@H](COP(=O)(O)OP(=O)(O)OP(=O)(O)O)[C@@H](O)[C@H]1O [ATP]
Kd (saCodY [3]): 19 mM

B1: ilvB promoter 45-mer (dsDNA)
DNA 1: CAGGTGGCGTCATGCAAGTCCCTGAGAATTTAATTTAATTTATTT
DNA 2: AAATAAATTAAATTAAATTCTCAGGGACTTGCATGACGCCACCTC
binding signal (saCodY 3P5A): 3 fold Kd vs WT without GTP | binding signal (saCodY E153A): 1.7 fold Kd vs WT without GTP

B2: CodY from Staphylococcus aureus (saCodY), wild type (natural protein, UniProt A7X1N2 1-257, looked up)
chain: T2 sequence (A7X1N2 1-257)
stoichiometry N (SEC): 4 | stoichiometry N (crystal structure): 2

B3: CodY from Bacillus cereus (bcCodY), wild type (natural protein, UniProt Q819X8 1-259, looked up)
chain: T1 sequence (Q819X8 1-259)
stoichiometry N (SEC): 4
